We go through 44 sequences from patent publication US10064913B2, “Immunotherapy against several tumors including gastrointestinal and gastric cancer” (IMMATICS BIOTECHNOLOGIES GMBH, priority 2010, dated 2018).

The test has as its system CD8+ T cells. The test can be described thus: In vitro immunogenicity of HLA-A*2402 restricted TUMAPs (aAPC priming of CD8+ T cells, multimer staining). The format is cell-based, human. The settings on record: HLA-A*2402 peptides, CD8+ T cells of healthy HLA-A*24 donors, three stimulation cycles with pMHC/anti-CD28 beads; for Wells positive/evaluable [%]: at least 48 wells evaluable; for Donors positive/evaluable [%]: at least four donors evaluable. The text has this:
In order to perform in vitro stimulations by artificial antigen presenting cells (aAPC) loaded with peptide-MHC complex (pMHC) and anti-CD28 antibody, we first isolated CD8 T cells from fresh HLA-A*24 leukapheresis products or from HLA-A*2 buffy coats of healthy donors obtained from the Blood Bank Tuebingen.
CD8 T cells were either directly enriched or PBMCs (peripheral blood mononuclear cells) were isolated first by using standard gradient separation medium (PAA, Colbe, Germany). Isolated CD8 lymphocytes or PBMCs were incubated until use in T-cell medium (TCM) consisting of RPMI-Glutamax (Invitrogen, Karlsruhe, Germany) supplemented with 10% heat inactivated human AB serum (PAN-Biotech, Aidenbach, Germany), 100 U/ml Penicillin/100 μg/ml Streptomycin (Cambrex, Cologne, Germany), 1 mM sodium pyruvate (CC Pro, Oberdorla, Germany), 20 μg/ml Gentamycin (Cambrex). […] Isolation of CD8+ lymphocytes was performed by positive selection using CD8 MicroBeads (Miltenyi Biotec, Bergisch-Gladbach, Germany).
800.000 beads/200 μl were coated in 96-well plates in the presence of 600 ng biotin-anti-CD28 plus 200 ng relevant biotin-pMHC (high density beads). […] Half of the medium was then exchanged by fresh TCM supplemented with 80 U/ml IL-2 and incubation was continued for 3-4 days at 37° C. This stimulation cycle was performed for a total of three times.
In vitro priming of specific multimer+CD8+ lymphocytes was detected by appropriate gating and by comparing to negative control stimulations.

In the case of “VYPNWAIGL (listed as Homo sapiens) [SLC6A6-001]”, the “Wells positive/evaluable [%]” value was found to be 1% and the “Donors positive/evaluable [%]” value is reported as 17%.

Turning to “SYNVTSVLF (listed as Homo sapiens) [LCN2-001]”, the “Wells positive/evaluable [%]” value is given as 1% and the “Donors positive/evaluable [%]” value is reported as 17%.

“MYMTVSIIDRF (listed as Homo sapiens) [CCNB1-003]”: the “Wells positive/evaluable [%]” value was 3% and the “Donors positive/evaluable [%]” value is 33%.

As for “VWSDVTPLTF (listed as Homo sapiens) [MMP11-001]”, the “Wells positive/evaluable [%]” value is reported as 11% and the “Donors positive/evaluable [%]” value came out at 33%.

For “AYPTVKFYF (listed as Homo sapiens) [DNAJC10-002]”, the “Wells positive/evaluable [%]” value turned out to be 3% and the “Donors positive/evaluable [%]” value is on record as 33%.

In the case of “VYIEKNDKL (listed as Homo sapiens) [ERBB3-001]”, the “Donors positive/evaluable [%]” value amounted to 83%.

As for “SYQKVIELF (listed as Homo sapiens) [PBK-001]”, the “Wells positive/evaluable [%]” value is 0% and the “Donors positive/evaluable [%]” value turned out to be 0%.

On to “NYLLYVSNF (listed as Homo sapiens) [MST1R-001]”, for which the “Wells positive/evaluable [%]” value amounted to 13% and the “Donors positive/evaluable [%]” value is recorded as 50%.

Take “IYLEVIHNL (listed as Homo sapiens) [DNAJC10-001]”: the “Wells positive/evaluable [%]” value was 15% and the “Donors positive/evaluable [%]” value is recorded as 50%.

For “IYAPKLQEF (listed as Homo sapiens) [CCNE2-001]”, the “Wells positive/evaluable [%]” value worked out at 0% and the “Donors positive/evaluable [%]” value is given as 0%.

For the sequence “VYNPTPNSL (listed as Homo sapiens) [COL12A1-001]”, the “Wells positive/evaluable [%]” value was found to be 0% and the “Donors positive/evaluable [%]” value was 0%.

For the sequence “NYEETFPHI (listed as Homo sapiens) [MUC6-001]”, the “Wells positive/evaluable [%]” value came to 22% and the “Donors positive/evaluable [%]” value amounted to 83%.

Consider “VYTTMAEHF (listed as Homo sapiens) [TSPAN1-002]”, for which the “Wells positive/evaluable [%]” value was 1% and the “Donors positive/evaluable [%]” value was 17%.

For “VFDTAIAHLF (listed as Homo sapiens) [SIAH2-001]”, the “Wells positive/evaluable [%]” value turned out to be 8% and the “Donors positive/evaluable [%]” value was determined as 50%.

Consider “SYIIDPLNL (listed as Homo sapiens) [PROM1-001]”, for which the “Wells positive/evaluable [%]” value was found to be 26% and the “Donors positive/evaluable [%]” value was 83%.

Turning to “QYASRFVQL (listed as Homo sapiens) [PLK4-001]”, the “Wells positive/evaluable [%]” value came to 5% and the “Donors positive/evaluable [%]” value worked out at 60%.

“AYAIIKEEL (listed as Homo sapiens) [ATAD2-001]”: the “Wells positive/evaluable [%]” value came out at 3% and the “Donors positive/evaluable [%]” value is 33%.

As for “DYAYLREHF (listed as Homo sapiens) [ZNF598-001]”, the “Wells positive/evaluable [%]” value was determined as 17% and the “Donors positive/evaluable [%]” value is on record as 83%.

Regarding “SYLELVKSL (listed as Homo sapiens) [SDHC-001]”, the “Wells positive/evaluable [%]” value is listed as 3% and the “Donors positive/evaluable [%]” value is on record as 33%.

In the case of “SYNPLWLRI (listed as Homo sapiens) [ASPM-002]”, the “Wells positive/evaluable [%]” value is listed as 32% and the “Donors positive/evaluable [%]” value is listed as 67%.

For “YYYVGFAYL (listed as Homo sapiens) [EIF3L-001]”, the “Wells positive/evaluable [%]” value was determined as 29% and the “Donors positive/evaluable [%]” value is reported as 100%.

As to “SYLQAANAL (listed as Homo sapiens) [COL6A3-001]”, the “Wells positive/evaluable [%]” value came out at 0% and the “Donors positive/evaluable [%]” value is recorded as 0%.

For the sequence “IYPDASLLI (listed as Homo sapiens) [CEA-010]”, the “Wells positive/evaluable [%]” value is reported as 3% and the “Donors positive/evaluable [%]” value amounted to 40%.

Regarding “SYIDVLPEF (listed as Homo sapiens) [MET-006]”, the “Wells positive/evaluable [%]” value was determined as 21% and the “Donors positive/evaluable [%]” value stood at 67%.

Regarding “FYQPKIQQF (listed as Homo sapiens) [FANCI-001]”, the “Wells positive/evaluable [%]” value was 1% and the “Donors positive/evaluable [%]” value is recorded as 17%.

On to “LYLENIDEF (listed as Homo sapiens) [POLD3-001]”, for which the “Wells positive/evaluable [%]” value is 7% and the “Donors positive/evaluable [%]” value was found to be 67%.

On to “VYTTSYQQI (listed as Homo sapiens) [NFYB-001]”, for which the “Wells positive/evaluable [%]” value came to 7% and the “Donors positive/evaluable [%]” value is 50%.

With “YYKNIGLGF (listed as Homo sapiens) [RPS11-001]”, the “Wells positive/evaluable [%]” value amounted to 3% and the “Donors positive/evaluable [%]” value amounted to 17%.

“FYISPVNKL (listed as Homo sapiens) [AVL9-001]”: the “Wells positive/evaluable [%]” value was determined as 31% and the “Donors positive/evaluable [%]” value came out at 100%.

As to “RYLPKGFLNQF (listed as Homo sapiens) [PTK2-001]”, the “Wells positive/evaluable [%]” value is given as 4% and the “Donors positive/evaluable [%]” value came to 17%.

As to “YYNAAGFNKL (listed as Homo sapiens) [UQCRB-001]”, the “Wells positive/evaluable [%]” value was 24% and the “Donors positive/evaluable [%]” value is on record as 83%.

With “VYGIRLEHF (listed as Homo sapiens) [NUF2-001]”, the “Wells positive/evaluable [%]” value was determined as 50% and the “Donors positive/evaluable [%]” value is given as 100%.

Consider “AYLVYTDRL (listed as Homo sapiens) [PPAP2C-001]”, for which the “Wells positive/evaluable [%]” value is listed as 29% and the “Donors positive/evaluable [%]” value stood at 83%.

In the case of “RYLPQCSYF (listed as Homo sapiens) [CCND2-001]”, the “Wells positive/evaluable [%]” value was found to be 10% and the “Donors positive/evaluable [%]” value was determined as 17%.

Regarding “RYLWATVTI (listed as Homo sapiens) [ASPM-001]”, the “Wells positive/evaluable [%]” value stood at 3% and the “Donors positive/evaluable [%]” value amounted to 17%.

On to “DYTIGFGKF (listed as Homo sapiens) [ITGB4-001]”, for which the “Wells positive/evaluable [%]” value is listed as 20% and the “Donors positive/evaluable [%]” value was 67%.

Take “KYLTVKDYL (listed as Homo sapiens) [ATAD2-002]”: the “Wells positive/evaluable [%]” value was 1% and the “Donors positive/evaluable [%]” value turned out to be 17%.

On to “QYIDKLNEL (listed as Homo sapiens) [CCDC88A-001]”, for which the “Wells positive/evaluable [%]” value is recorded as 0% and the “Donors positive/evaluable [%]” value stood at 0%.

Take “VYISSLALL (listed as Homo sapiens) [PSMD14-001]”: the “Wells positive/evaluable [%]” value came out at 1% and the “Donors positive/evaluable [%]” value turned out to be 17%.

As to “VFIFKGNQF (listed as Homo sapiens) [MMP3-001]”, the “Wells positive/evaluable [%]” value was found to be 1% and the “Donors positive/evaluable [%]” value was determined as 11%.

Regarding “SYATLLHVL (listed as Homo sapiens) [GPR39-001]”, the “Wells positive/evaluable [%]” value turned out to be 6% and the “Donors positive/evaluable [%]” value amounted to 50%.

Take “VYFSKSEQL (listed as Homo sapiens) [EPHA2-005]”: the “Wells positive/evaluable [%]” value came to 0% and the “Donors positive/evaluable [%]” value is 0%.

For “RFLSGIINF (listed as Homo sapiens) [NUF2-002]”, the “Wells positive/evaluable [%]” value turned out to be 6% and the “Donors positive/evaluable [%]” value is listed as 50%.

As to “VYKVVGNLL (listed as Homo sapiens) [IQGAP3-001]”, the “Wells positive/evaluable [%]” value amounted to 24% and the “Donors positive/evaluable [%]” value amounted to 100%.
